Reference: PubChem BioAssay AID1963420 (Molecular Pharmacology Branch, DTP, NCI, 2024)
Where “and” joins values, the source holds several entries; their conditions need not be identical. Equal values may be shown once. Each block holds one compound with its values, some of them ahead of it.

Test system: 494315-158-R-J1-PDC complex spheroid growth, percent test/control
Assay: Anticancer human tumor 494315-158-R-J1-PDC patient-derived soft tissue sarcoma cell line growth inhibition [Asc]
Conditions: for viability, T/C: stronger effect = lower value
Experimental: Multicellular complex tumor spheroid response to apoptosis pathway targeting inhibitors Alrizomadlin, Pelcitoclax, and Dasminapant in combination with a variety of drugs and investigational agents in selected tumor cell lines
The MDM2 inhibitor alrizomadlin, the Bcl-2/Bcl-xL inhibitor pelcitoclax, and the IAPs inhibitor dasminapant were evaluated both individually and in combination with standard of care and investigational anticancer small molecules within a complex spheroid model of solid tumors. . Complex spheroids include a stromal component modeled by human endothelial cells (HUVEC) and fibroblasts modeled by human mesenchymal stem cells (MSCs). The concentration ranges selected for each drug and investigational agent were based upon clinically achievable concentrations if the clinical Cmax of the agent was known.
Compounds. The drugs and investigational agents: alrizomadlin (APG-115; NSC831270), pelcitoclax (APG-1252; NSC835773), dasminapant (APG-1387;NSC834197), TAK-243 (NSC785004), copanlisib (NSC809693), olaparib (NSC753686), talazoparib (NSC767125), cobimetinib (NSC 768068), eltanexor (KPT-8602, NSC 794443), abemaciclib (NSC 768073), sotorasib (NSC818433), adagrasib (NSC 831453), MRTX-1133 (NSC 836407), Iadademestat (ORY1001, NSC 806812), and RMC-4630 (NSC839698), were obtained from the NCI Developmental Therapeutics Program Chemical Repository. The FDA-approved anticancer drug set is available from the Developmental Therapeutics Program at https://dtp.cancer.gov/organization/dscb/obtaining/available plates.htm. […] The stock solutions were prepared in dimethyl sulfoxide (DMSO, Sigma-Aldrich, St. Louis, MO, cat. D2650) at 800-fold the tested concentration and stored at -70 degrees C prior to their use. All drugs and investigational agents were tested over a range starting from a high concentration at or near the clinical Cmax and decreasing in half-log increments. If the clinical Cmax for an agent had not been determined, the highest concentration tested was 10 microM.
The patient-derived cancer (PDC) cell lines include five colon adenocarcinomas: 186277-243-T-J2-PDC, 616215-338-R-J1-PDC, 439559-082-T-J2-PDC, 463943-066-T-J2-PDC, and 519858-162-T-J1-PDC; three pancreatic carcinomas: 323965-272-R-J2-PDC, 521955-158-R6-J3-PDC, and 521955-158-R2-J5-PDC; two uterine sarcomas: 327498-152-R-J2-PDC and 993429-296-R-J1-PDC; two rhabdomyosarcomas: 755483-174-R-J1-PDC and 772245-204-R-J1-PDC; two soft tissue sarcomas: 126254-015-R-J1-PDC and 494315-158-R-J1-PDC; two malignant fibrous histiocytomas: 317291-083-R-J1-PDC and 596521-263-R-J1-PDC; two breast carcinomas: 171881-019-R-J1-PDC and 885512-296-R-J2-PDC; and one ovarian carcinoma: 6556581-035-R-J-PDC were obtained from the NCI PDMR, (https://pdmr.cancer.gov). The established cell lines HSSY-2 synovial sarcoma (RRID:CVCL 8719), SYO-1 synovial sarcoma (RRID:CVCL_7146), MPNST malignant peripheral neural sheath tumor were obtained from the Sloan Kettering Institute. The following established cell lines were purchased from the American Type Culture Collection (ATCC, Manassas, VA), Sor the received from the NCI repository:, PANC-1 pancreatic carcinoma (CRL-1469, RRID:CVCL_0480), OVCAR-5 ovarian carcinoma (RRID:CVCL_1628), OVCAR-8 ovarian carcinoma (RRID:CVCL_1629), , MCF-7 breast carcinoma (CRL-12584, RRID:CVCL_0031), MDA-MB-231 breast carcinoma (CRL-12532, RRID:CVCL_0062), NCI-H1876 small cell lung carcinoma (CRL-5902, RRID:CVCL_1503), NCI-H510A small cell lung carcinoma (HTB-184, RRID:CVCL_1565), NCI-H1417 (CRL-5869, RRID:CVCL_1469), and NCI-H196 small cell lung carcinoma (CRL-5823, RRID:CVCL_1509). Dr. Peter Houghton (Greehey Children's Cancer Research Institute, University of Texas Health Science Center, San Antonio, TX) provided Rh-18 rhabdomyosarcoma (RRID:CVCL_1659). Pooled donor human umbilical vein endothelial cells (HUVEC, Lonza, cat. CC-2519) and human mesenchymal stem cells (hMSC, Lonza, cat. PT-2501) were purchased from Lonza (Walkersville, MD).
Cell Culture. […]
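Note: compound exposure lasted seven days after spheroids formed for three days.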

IC50 (curve of first compound, second compound 0.01 µM): > 100 nM | IC50 (curve of first compound, second compound 0.0316 µM): > 100 nM | IC50 (curve of first compound, second compound 0.1 µM): > 100 nM | IC50 (curve of first compound, second compound 0.316 µM): < 0.316 nM | IC50 (curve of first compound, second compound 1 µM): < 0.316 nM
SMILES: NC1CCC(NC2CC2c2ccccc2)CC1 (configuration not stated) + CNC(C)C(=O)NC1CN(S(=O)(=O)c2cccc(S(=O)(=O)N3CCC4CCC(C(=O)NC(c5ccccc5)c5ccccc5)N4C(=O)C(NC(=O)C(C)NC)C3)c2)CCC2CCC(C(=O)NC(c3ccccc3)c3ccccc3)N2C1=O
viability, T/C (second compound 0.01 µM, first compound 0.000316 µM): 72.2% | viability, T/C (second compound 0.01 µM, first compound 0.001 µM): 70.7% | viability, T/C (second compound 0.01 µM, first compound 0.00316 µM): 71.7% | viability, T/C (second compound 0.01 µM, first compound 0.01 µM): 77.2% | viability, T/C (second compound 0.01 µM, first compound 0.0316 µM): 77.4% | viability, T/C (second compound 0.01 µM, first compound 0.1 µM): 66.1% | viability, T/C (second compound 0.0316 µM, first compound 0.000316 µM): 65.7% | viability, T/C (second compound 0.0316 µM, first compound 0.001 µM): 67.8% | viability, T/C (second compound 0.0316 µM, first compound 0.00316 µM): 55.7% | viability, T/C (second compound 0.0316 µM, first compound 0.01 µM): 70.6% | viability, T/C (second compound 0.0316 µM, first compound 0.0316 µM): 62.3% | viability, T/C (second compound 0.0316 µM, first compound 0.1 µM): 57.3% | viability, T/C (second compound 0.1 µM, first compound 0.000316 µM): 53.5% | viability, T/C (second compound 0.1 µM, first compound 0.001 µM): 60.9% | viability, T/C (second compound 0.1 µM, first compound 0.00316 µM): 47.3% | viability, T/C (second compound 0.1 µM, first compound 0.01 µM): 55.5% | viability, T/C (second compound 0.1 µM, first compound 0.0316 µM): 52.4% | viability, T/C (second compound 0.1 µM, first compound 0.1 µM): 64.5% | viability, T/C (second compound 0.316 µM, first compound 0.000316 µM): 45.6% | viability, T/C (second compound 0.316 µM, first compound 0.001 µM): 48.3% | viability, T/C (second compound 0.316 µM, first compound 0.00316 µM): 42.1% | viability, T/C (second compound 0.316 µM, first compound 0.01 µM): 43.9% | viability, T/C (second compound 0.316 µM, first compound 0.0316 µM): 43.7% | viability, T/C (second compound 0.316 µM, first compound 0.1 µM): 44.7% | viability, T/C (second compound 1 µM, first compound 0.000316 µM): 38.8% | viability, T/C (second compound 1 µM, first compound 0.001 µM): 41.9% | viability, T/C (second compound 1 µM, first compound 0.00316 µM): 42.9% | viability, T/C (second compound 1 µM, first compound 0.01 µM): 40.2% | viability, T/C (second compound 1 µM, first compound 0.0316 µM): 35.7% | viability, T/C (second compound 1 µM, first compound 0.1 µM): 46.9%

IC50 (curve of compound): > 3000 nM and 1520 nM and 1800 nM
SMILES: Cc1nc(N2CCC3(CC2)COC(C)C3N)c(CO)nc1Sc1ccnc(N)c1Cl (configuration not stated)
viability, T/C (compound 0.00949 µM): 105% and 96.7% and 89% | viability, T/C (compound 0.03 µM): 92.1% and 86.9% and 81.2% | viability, T/C (compound 0.0949 µM): 85.7% and 86% and 78.7% | viability, T/C (compound 0.3 µM): 92% and 75.2% and 66.9% | viability, T/C (compound 0.949 µM): 71.2% and 54.1% and 58.9% | viability, T/C (compound 3 µM): 54.9% and 42.4% and 43.2%
